Results as given in PubChem BioAssay (NCI).
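Five compound concentrations were applied to cells in 96-well plates for 48 hours; endpoints were derived by simple linear interpolation of the resulting dose-response curve. GI50 = concentration required for 50% inhibition of growth. TGI is the concentration that stops growth completely.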

system: HOP-62 NSCLC; experiment: inhibition of tumour cell growth, NCI panel, 48 h

| Structure (SMILES) | GI50 | TGI |
| --- | --- | --- |
| Nc1c(C(=O)Nc2ccccc2Cl)sc2nc3c(cc12)C(=O)CCC3 | 4.33 µM | > 67.3 µM |
| COc1ccc(-c2cc(Nc3ccnc(N4CCOCC4)n3)on2)cc1 | 0.372 µM | 16.8 µM |

system: HOP-92 NSCLC; experiment: inhibition of tumour cell growth, NCI panel, 48 h

| Structure (SMILES) | GI50 | TGI |
| --- | --- | --- |
| CN1C(NNC(=O)c2cccnc2)=NS(=O)(=O)c2cc(Cl)ccc21 | > 100 µM | > 100 µM |
| Nc1c(C(=O)Nc2ccccc2Cl)sc2nc3c(cc12)C(=O)CCC3 | 7.29 µM | > 100 µM |
| COc1ccc(-c2cc(Nc3ccnc(N4CCOCC4)n3)on2)cc1 | 3.46 µM | 22.5 µM |

system: HS 578T breast; experiment: inhibition of tumour cell growth, NCI panel, 48 h

| Structure (SMILES) | GI50 | TGI |
| --- | --- | --- |
| CN1C(NNC(=O)c2cccnc2)=NS(=O)(=O)c2cc(Cl)ccc21 | > 100 µM | > 100 µM |
| Nc1c(C(=O)Nc2ccccc2Cl)sc2nc3c(cc12)C(=O)CCC3 | 3.56 µM | > 100 µM |
| COc1ccc(-c2cc(Nc3ccnc(N4CCOCC4)n3)on2)cc1 | 0.303 µM | 9.8 µM |

system: HT29 colon; experiment: inhibition of tumour cell growth, NCI panel, 48 h

| Structure (SMILES) | TGI | GI50 |
| --- | --- | --- |
| CCCCCCc1cc2cc(C(=O)Nc3ccc(F)cc3)c(=N)oc2cc1O | > 100 µM | – |
| CN1C(NNC(=O)c2cccnc2)=NS(=O)(=O)c2cc(Cl)ccc21 | > 100 µM | > 100 µM |
| Nc1c(C(=O)Nc2ccccc2Cl)sc2nc3c(cc12)C(=O)CCC3 | > 100 µM | 0.61 µM |
| COc1ccc(-c2cc(Nc3ccnc(N4CCOCC4)n3)on2)cc1 | 11.5 µM | 0.243 µM |

system: IGROV1 ovarian; experiment: inhibition of tumour cell growth, NCI panel, 48 h

| Structure (SMILES) | TGI | GI50 |
| --- | --- | --- |
| CCCCCCc1cc2cc(C(=O)Nc3ccc(F)cc3)c(=N)oc2cc1O | 4.47 µM | – |
| CN1C(NNC(=O)c2cccnc2)=NS(=O)(=O)c2cc(Cl)ccc21 | > 100 µM | > 100 µM |
| Nc1c(C(=O)Nc2ccccc2Cl)sc2nc3c(cc12)C(=O)CCC3 | > 100 µM | > 100 µM |
| COc1ccc(-c2cc(Nc3ccnc(N4CCOCC4)n3)on2)cc1 | 16.9 µM | 0.245 µM |

system: K-562 leukemia; experiment: inhibition of tumour cell growth, NCI panel, 48 h

| Structure (SMILES) | TGI | GI50 |
| --- | --- | --- |
| CCCCCCc1cc2cc(C(=O)Nc3ccc(F)cc3)c(=N)oc2cc1O | 12.3 µM | – |
| CN1C(NNC(=O)c2cccnc2)=NS(=O)(=O)c2cc(Cl)ccc21 | > 100 µM | > 100 µM |
| Nc1c(C(=O)Nc2ccccc2Cl)sc2nc3c(cc12)C(=O)CCC3 | > 100 µM | 0.493 µM |
| COc1ccc(-c2cc(Nc3ccnc(N4CCOCC4)n3)on2)cc1 | 20.9 µM | 0.047 µM |

system: KM12 colon; experiment: inhibition of tumour cell growth, NCI panel, 48 h

| Structure (SMILES) | TGI | GI50 |
| --- | --- | --- |
| CCCCCCc1cc2cc(C(=O)Nc3ccc(F)cc3)c(=N)oc2cc1O | 10.1 µM | – |
| CN1C(NNC(=O)c2cccnc2)=NS(=O)(=O)c2cc(Cl)ccc21 | > 100 µM | > 100 µM |
| Nc1c(C(=O)Nc2ccccc2Cl)sc2nc3c(cc12)C(=O)CCC3 | > 100 µM | 0.592 µM |
| COc1ccc(-c2cc(Nc3ccnc(N4CCOCC4)n3)on2)cc1 | 12.3 µM | 0.0893 µM |

system: LOX IMVI melanoma; experiment: inhibition of tumour cell growth, NCI panel, 48 h

| Structure (SMILES) | TGI | GI50 |
| --- | --- | --- |
| CCCCCCc1cc2cc(C(=O)Nc3ccc(F)cc3)c(=N)oc2cc1O | 4.93 µM | – |
| CN1C(NNC(=O)c2cccnc2)=NS(=O)(=O)c2cc(Cl)ccc21 | > 100 µM | > 100 µM |
| Nc1c(C(=O)Nc2ccccc2Cl)sc2nc3c(cc12)C(=O)CCC3 | > 100 µM | 51.9 µM |
| COc1ccc(-c2cc(Nc3ccnc(N4CCOCC4)n3)on2)cc1 | 15.3 µM | 0.353 µM |

system: M14 melanoma; experiment: inhibition of tumour cell growth, NCI panel, 48 h

| Structure (SMILES) | TGI | GI50 |
| --- | --- | --- |
| CCCCCCc1cc2cc(C(=O)Nc3ccc(F)cc3)c(=N)oc2cc1O | 13.2 µM | – |
| CN1C(NNC(=O)c2cccnc2)=NS(=O)(=O)c2cc(Cl)ccc21 | > 100 µM | > 100 µM |
| Nc1c(C(=O)Nc2ccccc2Cl)sc2nc3c(cc12)C(=O)CCC3 | > 100 µM | 1.06 µM |
| COc1ccc(-c2cc(Nc3ccnc(N4CCOCC4)n3)on2)cc1 | 14.8 µM | 0.0957 µM |

system: MALME-3M melanoma; experiment: inhibition of tumour cell growth, NCI panel, 48 h

| Structure (SMILES) | TGI | GI50 |
| --- | --- | --- |
| CCCCCCc1cc2cc(C(=O)Nc3ccc(F)cc3)c(=N)oc2cc1O | > 100 µM | – |
| CN1C(NNC(=O)c2cccnc2)=NS(=O)(=O)c2cc(Cl)ccc21 | > 100 µM | > 100 µM |
| Nc1c(C(=O)Nc2ccccc2Cl)sc2nc3c(cc12)C(=O)CCC3 | > 100 µM | 2.78 µM |
| COc1ccc(-c2cc(Nc3ccnc(N4CCOCC4)n3)on2)cc1 | 17.4 µM | 0.289 µM |

system: MCF7 breast; experiment: inhibition of tumour cell growth, NCI panel, 48 h

| Structure (SMILES) | TGI | GI50 |
| --- | --- | --- |
| CCCCCCc1cc2cc(C(=O)Nc3ccc(F)cc3)c(=N)oc2cc1O | 33.7 µM | – |
| CN1C(NNC(=O)c2cccnc2)=NS(=O)(=O)c2cc(Cl)ccc21 | > 100 µM | > 100 µM |
| Nc1c(C(=O)Nc2ccccc2Cl)sc2nc3c(cc12)C(=O)CCC3 | > 100 µM | 0.494 µM |
| COc1ccc(-c2cc(Nc3ccnc(N4CCOCC4)n3)on2)cc1 | 12.3 µM | 0.258 µM |

system: MDA-MB-231 breast; experiment: inhibition of tumour cell growth, NCI panel, 48 h

| Structure (SMILES) | GI50 | TGI |
| --- | --- | --- |
| CN1C(NNC(=O)c2cccnc2)=NS(=O)(=O)c2cc(Cl)ccc21 | > 100 µM | > 100 µM |
| Nc1c(C(=O)Nc2ccccc2Cl)sc2nc3c(cc12)C(=O)CCC3 | 6.97 µM | > 100 µM |
| COc1ccc(-c2cc(Nc3ccnc(N4CCOCC4)n3)on2)cc1 | 0.339 µM | 22.5 µM |

system: MDA-MB-435; experiment: inhibition of tumour cell growth, NCI panel, 48 h

| Structure (SMILES) | TGI | GI50 |
| --- | --- | --- |
| CCCCCCc1cc2cc(C(=O)Nc3ccc(F)cc3)c(=N)oc2cc1O | 10.1 µM | – |
| CN1C(NNC(=O)c2cccnc2)=NS(=O)(=O)c2cc(Cl)ccc21 | > 100 µM | > 100 µM |
| Nc1c(C(=O)Nc2ccccc2Cl)sc2nc3c(cc12)C(=O)CCC3 | 0.349 µM | 0.137 µM |
| COc1ccc(-c2cc(Nc3ccnc(N4CCOCC4)n3)on2)cc1 | 0.121 µM | 0.0307 µM |

system: MDA-N; experiment: inhibition of tumour cell growth, NCI panel, 48 h

| Structure (SMILES) | TGI |
| --- | --- |
| CCCCCCc1cc2cc(C(=O)Nc3ccc(F)cc3)c(=N)oc2cc1O | 28.1 µM |

system: MOLT-4 leukemia; experiment: inhibition of tumour cell growth, NCI panel, 48 h

| Structure (SMILES) | TGI | GI50 |
| --- | --- | --- |
| CCCCCCc1cc2cc(C(=O)Nc3ccc(F)cc3)c(=N)oc2cc1O | 5.59 µM | – |
| CN1C(NNC(=O)c2cccnc2)=NS(=O)(=O)c2cc(Cl)ccc21 | > 100 µM | > 100 µM |
| Nc1c(C(=O)Nc2ccccc2Cl)sc2nc3c(cc12)C(=O)CCC3 | > 100 µM | > 100 µM |
| COc1ccc(-c2cc(Nc3ccnc(N4CCOCC4)n3)on2)cc1 | 25.5 µM | 0.766 µM |

system: NCI-H226 lung; experiment: inhibition of tumour cell growth, NCI panel, 48 h

| Structure (SMILES) | GI50 | TGI |
| --- | --- | --- |
| CN1C(NNC(=O)c2cccnc2)=NS(=O)(=O)c2cc(Cl)ccc21 | > 100 µM | > 100 µM |
| Nc1c(C(=O)Nc2ccccc2Cl)sc2nc3c(cc12)C(=O)CCC3 | 14.6 µM | > 100 µM |
| COc1ccc(-c2cc(Nc3ccnc(N4CCOCC4)n3)on2)cc1 | 0.751 µM | 9.82 µM |
